# Measurements reported in US20160159789A1, “SUBSTITUTED PYRAZOLOPYRIDINES” (BAYER PHARMA AKTIENGESELLSCHAFT, priority 2013, published 2016).
# Molecular target: T1, human full-length MKNK1 (Homo sapiens, UniProt Q9BUB5, T385D)
# T1 construct: purchased Carna Biosciences 02-145; host or cells: insect cells (baculovirus expression system)
# Experiment: MKNK1 kinase high ATP assay (TR-FRET)
# Format: biochemical
# Conditions: high ATP (2 mM final), 15 min preincubation with enzyme, GST-MKNK1 (T344D)
# Method in brief: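 GST-tagged full-length human MKNK1 from insect cells, preincubated 15 min with compound at 22° C in HEPES pH 7.5/MgCl2/DTT buffer, then reacted 30 min with 2 mM ATP and 0.06 μM biotinylated peptide (final). Phosphopeptide detected by TR-FRET (anti-pS6 pSer236/Eu-ProteinG, streptavidin-XL665), 665/620 ratio normalised to no-enzyme and no-inhibitor controls.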
# T1 sequence (Q9BUB5 1-424 isoform Q9BUB5-2 T344D): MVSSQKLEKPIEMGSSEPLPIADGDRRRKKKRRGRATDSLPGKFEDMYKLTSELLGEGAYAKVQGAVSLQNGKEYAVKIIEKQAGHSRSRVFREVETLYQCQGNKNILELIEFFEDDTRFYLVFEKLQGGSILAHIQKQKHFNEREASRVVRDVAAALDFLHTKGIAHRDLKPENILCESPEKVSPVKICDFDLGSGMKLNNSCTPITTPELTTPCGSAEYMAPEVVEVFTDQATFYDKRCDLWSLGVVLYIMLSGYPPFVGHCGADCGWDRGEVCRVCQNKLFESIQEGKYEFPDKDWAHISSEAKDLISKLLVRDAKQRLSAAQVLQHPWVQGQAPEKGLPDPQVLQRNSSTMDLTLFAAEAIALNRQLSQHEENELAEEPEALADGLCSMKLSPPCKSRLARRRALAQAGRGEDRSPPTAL
row,IC50 [nM],Structure (SMILES)
1,16,"O=C(c1[nH]c2ncnc(Nc3cc4cn[nH]c4cn3)c2c1Br)N1CCCCC1 [Example 72, [5-Bromo-4-(1H-pyrazolo[3,4-c]pyridin-5-ylamino)-7H-pyrrolo[2,3-d]pyrimidin-6-yl](piperidin-1-yl)methanone]"
2,17.3,"CCN(C)C(=O)[C@H]1CCc2c(sc3ncnc(Nc4cc5cn[nH]c5cn4)c23)C1 [Example 58, (7S)—N-Ethyl-N-methyl-4-(1H-pyrazolo[3,4-c]pyridin-5-ylamino)-5,6,7,8-tetrahydro[1]benzothieno[2,3-d]pyrimidine-7-carboxamide]"
3,1.4,"CCCN(C)C(=O)[C@H]1CCc2c(sc3ncnc(Nc4cc5cn[nH]c5nc4OC)c23)C1 [Example 38, (7S)-4-[(6-Methoxy-1H-pyrazolo[3,4-b]pyridin-5-yl)amino]-N-methyl-N-propyl-5,6,7,8-tetrahydro[1]benzothieno[2,3-d]pyrimidine-7-carboxamide]"
4,10.5,"C[C@H]1COCCN1C(=O)[C@H]1CCc2c(sc3ncnc(Nc4cc5cn[nH]c5cn4)c23)C1 [Example 87, [(3S)-3-Methylmorpholin-4-yl][(7S)-4-(1H-pyrazolo[3,4-c]pyridin-5-ylamino)-5,6,7,8-tetrahydro[1]benzothieno[2,3-d]pyrimidin-7-yl]methanone]"
5,14.6,"CN(C)CCN(C)C(=O)c1[nH]c2ncnc(Nc3cc4cn[nH]c4nc3O)c2c1Br [Example 63, 5-Bromo-N-[2-(dimethylamino)ethyl]-4-[(6-hydroxy-1H-pyrazolo[3,4-b]pyridin-5-yl)amino]-N-methyl-7H-pyrrolo[2,3-d]pyrimidine-6-carboxamide]"
6,2.5,COc1nc2[nH]ncc2cc1Nc1ncnc2sc3c(c12)CC[C@H](C(=O)N1CCOCC1)C3 [Example 34]
7,2.4,"CN(C)C1CN(C(=O)[C@H]2CCc3c(sc4ncnc(Nc5cc6cn[nH]c6cn5)c34)C2)C1 [Example 140, 10 [3-(Dimethylamino)azetidin-1-yl][(7S)-4-(1H-pyrazolo[3,4-c]pyridin-5-ylamino)-5,6,7,8-tetrahydro[1]benzothieno[2,3-d]pyrimidin-7-yl]methanone]"
8,0.5,"COc1nc2[nH]ncc2cc1Nc1ncnc2sc3c(c12)CC[C@H](C(=O)N(C)C)C3 [Example 53, (7S)-4-[(6-Methoxy-1H-pyrazolo[3,4-b]pyridin-5-yl)amino]-N,N-dimethyl-5,6,7,8-tetrahydro[1]benzothieno[2,3-d]pyrimidine-7-carboxamide]"
9,1350,"c1ccc(CCc2nc3c(Nc4cc5cn[nH]c5cn4)ncnc3s2)cc1 [Example 79, 2-(2-Phenylethyl)-N-(1H-pyrazolo[3,4-c]pyridin-5-yl)[1,3]thiazolo[5,4-d]pyrimidin-7-amine]"
10,5.9,"C[C@@H]1CN(C(=O)[C@H]2CCc3c(sc4ncnc(Nc5cc6cn[nH]c6cn5)c34)C2)C[C@H](C)O1 [Example 89, [(2R,6S)-2,6-Dimethylmorpholin-4-yl][(7S)-4-(1H-pyrazolo[3,4-c]pyridin-5-ylamino)-5,6,7,8-tetrahydro[1]benzothieno[2,3-d]pyrimidin-7-yl]methanone]"
11,7.3,"CCc1c[nH]c2ncnc(Nc3cc4cn[nH]c4cn3)c12 [Example 6, N-(5-Ethyl-7H-pyrrolo[2,3-d]pyrimidin-4-yl)-1H-pyrazolo[3,4-c]pyridin-5-amine]"
12,4.9,"CCN(C(=O)[C@H]1CCc2c(sc3ncnc(Nc4cc5cn[nH]c5cn4)c23)C1)C(C)C [Example 46, (7S)—N-Ethyl-N-(propan-2-yl)-4-(1H-pyrazolo[3,4-c]pyridin-5-ylamino)-5,6,7,8-tetrahydro[1]benzothieno[2,3-d]pyrimidine-7-carboxamide]"
13,27,"O=C([C@H]1CCc2c(sc3ncnc(Nc4cnc5[nH]ncc5c4)c23)C1)N1CCOCC1 [Example 102, Morpholin-4-yl[(7S)-4-(1H-pyrazolo[3,4-b]pyridin-5-ylamino)-5,6,7,8-tetrahydro[1]benzothieno[2,3-d]pyrimidin-7-yl]methanone]"
14,2.6,"CCCN(CCOC)C(=O)[C@H]1CCc2c(sc3ncnc(Nc4cc5cn[nH]c5nc4O)c23)C1 [Example 50, (7S)-4-[(6-Hydroxy-1H-pyrazolo[3,4-b]pyridin-5-yl)amino]-N-(2-methoxyethyl)-N-propyl-5,6,7,8-tetrahydro[1]benzothieno[2,3-d]pyrimidine-7-carboxamide]"
15,2.3,"CN(C)C(=O)[C@H]1CCc2c(sc3ncnc(Nc4cnc5[nH]ncc5c4)c23)C1 [Example 59, (7S)—N,N-Dimethyl-4-(1H-pyrazolo[3,4-b]pyridin-5-ylamino)-5,6,7,8-tetrahydro[1]benzothieno[2,3-d]pyrimidine-7-carboxamide]"
16,67.7,"CN(C)CCCN(C)C(=O)c1[nH]c2ncnc(Nc3cc4cn[nH]c4cn3)c2c1Br [Example 119, 5-Bromo-N-[3-(dimethylamino)propyl]-N-methyl-4-(1H-pyrazolo[3,4-c]pyridin-5-ylamino)-7H-pyrrolo[2,3-d]pyrimidine-6-carboxamide]"
17,2.2,"COc1nc2[nH]ncc2cc1Nc1ncnc2sc3c(c12)CC[C@H](C(=O)N1CCC1)C3 [Example 35, Azetidin-1-yl{(7S)-4-[(6-methoxy-1H-pyrazolo[3,4-b]pyridin-5-yl)amino]-5,6,7,8-tetrahydro[1]benzothieno[2,3-d]pyrimidin-7-yl}methanone]"
18,140,"O=C(c1[nH]c2ncnc(Nc3cnc4[nH]ncc4c3)c2c1Br)N1CCOCC1 [Example 74, [5-Bromo-4-(1H-pyrazolo[3,4-b]pyridin-5-ylamino)-7H-pyrrolo[2,3-d]pyrimidin-6-yl](morpholin-4-yl)methanone]"
19,212,"COc1nc2[nH]ncc2cc1Nc1ncnc2sc(C(=O)N(C)CC(=O)N(C)C)nc12 [Example 130, N-[2-(Dimethylamino)-2-oxoethyl]-7-[(6-methoxy-1H-pyrazolo[3,4-b]pyridin-5-yl)amino]-N-methyl[1,3]thiazolo[5,4-d]pyrimidine-2-carboxamide]"
20,40.7,"C[C@@H]1COCCN1C(=O)c1[nH]c2ncnc(Nc3cc4cn[nH]c4cn3)c2c1Br [Example 70, [5-Bromo-4-(1H-pyrazolo[3,4-c]pyridin-5-ylamino)-7H-pyrrolo[2,3-d]pyrimidin-6-yl][(3R)-3-methylmorpholin-4-yl]methanone]"
21,4.6,"CCN(C)C(=O)[C@H]1CCc2c(sc3ncnc(Nc4cc5cn[nH]c5nc4O)c23)C1 [Example 112, (7S)—N-Ethyl-4-[(6-hydroxy-1H-pyrazolo[3,4-b]pyridin-5-yl)amino]-N-methyl-5,6,7,8-tetrahydro[1]benzothieno[2,3-d]pyrimidine-7-carboxamide]"
22,20.4,"CN1CCN(C(=O)[C@H]2CCc3c(sc4ncnc(Nc5cnc6[nH]ncc6c5)c34)C2)CC1 [Example 106, (4-Methylpiperazin-1-yl)[(7S)-4-(1H-pyrazolo[3,4-b]pyridin-5-ylamino)-5,6,7,8-tetrahydro[1]benzothieno[2,3-d]pyrimidin-7-yl]methanone]"
23,76.8,"CN(C)C1CCN(C(=O)c2[nH]c3ncnc(Nc4cnc5[nH]ncc5c4)c3c2Br)CC1 [Example 127, [5-Bromo-4-(1H-pyrazolo[3,4-b]pyridin-5-ylamino)-7H-pyrrolo[2,3-d]pyrimidin-6-yl][4-(dimethylamino)piperidin-1-yl]methanone]"
